ChEMBL document CHEMBL5214910, “Rational Design of Dipicolylamine-Containing Carbazole Amphiphiles Combined with Zn2+ as Potent Broad-Spectrum Antibacterial Agents with a Membrane-Disruptive Mechanism” (J Med Chem, 2021)

Tests used:
[1] = test system: Staphylococcus aureus; assay: Antibacterial activity against Methicillin-resistant Staphylococcus aureus NCTC10442 assessed as inhibition of bacterial growth by measuring salt resistance incubated for 24 hrs in the presence of 12.5 ug/ml Zn2+ and 100 ug/ml Ca2+ by Muller hinton broth based dilution assay; assay type: functional
[2] = test system: Escherichia coli; assay: Antibacterial activity Escherichia coli ATCC 25922 assessed as inhibition of bacterial growth incubated for 24 hrs in the presence of 50 ug/mL Zn2+ by Muller hinton broth based dilution assay; assay type: functional

CC(C)=CCn1c2ccccc2c2c(OCC(O)CN(Cc3ccccn3)Cc3ccccn3)cccc21 (configuration not stated)
MIC [1]: 3.12 µg/mL | MIC [2]: 1.56 µg/mL
